Reference: article PMC7914897, “Cytotoxic Potential of a-Azepano- and 3-Amino-3,4-SeCo-Triterpenoids” (International Journal of Molecular Sciences, 2021)
Read-outs that look alike come from different tables or passages of the source.

Assays:
OVCAR-3 (Ovarian cancer) = test: cells; conditions: Homo sapiens
[1] = system: panel of approximately 60 cancer cell lines; test: NCI-60 screen (SRB, 48 h), full panel
SK-MEL-2 (Melanoma) = test: NCI-60 screen (SRB, 48 h); conditions: Homo sapiens
LOX IMVI (Melanoma) = test: NCI-60 screen (SRB, 48 h); format: cell-based; conditions: Homo sapiens
MCF7 (Breast cancer) = test: NCI-60 screen (SRB, 48 h); conditions: Homo sapiens
[2] = system: NCI-H226 (NSC lung cancer); test: NCI-60 screen (SRB, 48 h); conditions: Homo sapiens
SNB-75 (CNS cancer) = test: NCI-60 screen (SRB, 48 h)
M14 (Melanoma) = test: NCI-60 screen (SRB, 48 h); conditions: Homo sapiens
RXF 393 (Renal cancer) = test: NCI-60 screen (SRB, 48 h); conditions: Homo sapiens
PC-3 (Prostate cancer) = test: NCI-60 screen (SRB, 48 h); conditions: Homo sapiens
HOP-62 (NSC lung cancer) = test: NCI-60 screen (SRB, 48 h); conditions: Homo sapiens
Ovarian Cancer subpanel = test: NCI-60 screen, subpanel; conditions: Homo sapiens
HCC-2998 (Colon cancer) = test: NCI-60 screen (SRB, 48 h); conditions: Homo sapiens
DU-145 (Prostate cancer) = test: NCI-60 screen (SRB, 48 h); conditions: Homo sapiens

Question: How did the IC (TGI) (OVCAR-3 (Ovarian cancer); OVCAR-3, 48 h, read-out: TGI) turn out when CC1(C)NCCC[C@]2(C)[C@H]3C=CC4=C5C[C@@](C)(CO)CC[C@]5(C)CC[C@@]4(C)[C@]3(C)CC[C@@H]12 [Compound 6, azepano-glycyrrhetol-diene] was run?
Answer: 7.06 µM

Question: What about the CC50 (OVCAR-3 (Ovarian cancer); OVCAR-3, read-out: LC50) of the same compound?
Answer: 34.8 µM

Question: What about the “Positive Cytotoxic Effect (cell lines with percent growth < 0 / total)” value ([1]; 1 dose 10 µM) of the same compound?
Answer: 59/59

Question: What about the “number of cancer cell lines the compound was active against” value ([1]; 1 dose 10 µM) of the same compound?
Answer: pronounced antiproliferative effect against the whole NCI-60 cancer cell line panel

Question: And the activity at 10 µM ([1]; Homo sapiens, 48 h, read-out: Mean Growth, %)?
Answer: -77.2%

Question: What about the activity at 10 µM ([1]; Homo sapiens, 48 h, read-out: Range of Growth, %) of the same compound?
Answer: -99.7 to -5.08%

Question: What about the IC (TGI) ([1]; Homo sapiens, 48 h, read-out: TGI MG_MID60, average over all cell lines) of the same compound?
Answer: 13.2 µM

Question: And the GI50 ([1]; Homo sapiens, read-out: GI50 MG_MID60)?
Answer: 4.21 µM

Question: What about the GI50 ([1]; Homo sapiens, read-out: GI50 against all human tumor cell lines) of the same compound?
Answer: < 15 µM

Question: What about the CC50 ([1]; Homo sapiens, read-out: LC50 MG_MID60, average over all cell lines) of the same compound?
Answer: 41.9 µM

Question: What about the GI50 (SK-MEL-2 (Melanoma); SK-MEL-2) of the same compound?
Answer: 3.31 µM

Question: And the IC (TGI) (SK-MEL-2 (Melanoma); SK-MEL-2, 48 h, read-out: TGI)?
Answer: 12.2 µM

Question: And the CC50 (SK-MEL-2 (Melanoma); SK-MEL-2, read-out: LC50)?
Answer: 38.9 µM

Question: And the IC (TGI) (LOX IMVI (Melanoma); 48 h)?
Answer: 6.76 µM

Question: And the GI50 (LOX IMVI (Melanoma); read-out: GI50)?
Answer: 2.49 µM

Question: And the CC50 (LOX IMVI (Melanoma); read-out: LC50 (the source's name))?
Answer: 29 µM

Question: What about the GI50 (MCF7 (Breast cancer); MCF7) of the same compound?
Answer: 3.14 µM

Question: What about the IC (TGI) (MCF7 (Breast cancer); MCF7, 48 h, read-out: TGI) of the same compound?
Answer: 14.5 µM

Question: What about the CC50 (MCF7 (Breast cancer); MCF7, read-out: LC50) of the same compound?
Answer: 46.7 µM

Question: What about the GI50 ([2]; NCI-H226) of the same compound?
Answer: 4 µM

Question: What about the IC (TGI) ([2]; NCI-H226, 48 h, read-out: TGI) of the same compound?
Answer: 16.9 µM

Question: What about the CC50 ([2]; NCI-H226, read-out: LC50) of the same compound?
Answer: 82.2 µM

Question: And the GI50 (SNB-75 (CNS cancer); Homo sapiens, SNB-75)?
Answer: 3.43 µM

Question: And the IC (TGI) (SNB-75 (CNS cancer); Homo sapiens, SNB-75, 48 h, read-out: TGI)?
Answer: 14.8 µM

Question: And the CC50 (SNB-75 (CNS cancer); Homo sapiens, SNB-75, read-out: LC50)?
Answer: 46.5 µM

Question: And the “Growth % of the Most Sensitive Cell Lines” value (SNB-75 (CNS cancer); SNB-75, 1 dose 10 µM)?
Answer: −97.70%

Question: And the GI50 (M14 (Melanoma); M14)?
Answer: 3.91 µM

Question: And the IC (TGI) (M14 (Melanoma); M14, 48 h, read-out: TGI)?
Answer: 14.8 µM

Question: And the CC50 (M14 (Melanoma); M14, read-out: LC50)?
Answer: 41.5 µM

Question: And the GI50 (RXF 393 (Renal cancer); RXF 393)?
Answer: 1.84 µM

Question: And the IC (TGI) (RXF 393 (Renal cancer); RXF 393, 48 h, read-out: TGI)?
Answer: 4.15 µM

Question: What about the CC50 (RXF 393 (Renal cancer); RXF 393, read-out: LC50) of the same compound?
Answer: 9.35 µM

Question: What about the GI50 (PC-3 (Prostate cancer); PC-3) of the same compound?
Answer: 3.05 µM

Question: What about the IC (TGI) (PC-3 (Prostate cancer); PC-3, 48 h, read-out: TGI) of the same compound?
Answer: 12.3 µM

Question: And the CC50 (PC-3 (Prostate cancer); PC-3, read-out: LC50)?
Answer: 38.7 µM

Question: And the GI50 (HOP-62 (NSC lung cancer); HOP-62)?
Answer: 2.3 µM

Question: What about the IC (TGI) (HOP-62 (NSC lung cancer); HOP-62, 48 h, read-out: TGI) of the same compound?
Answer: 5.16 µM

Question: What about the CC50 (HOP-62 (NSC lung cancer); HOP-62, read-out: LC50) of the same compound?
Answer: 16.7 µM

Question: And the IC (TGI) (Ovarian Cancer subpanel; 48 h, read-out: TGI MG_MID)?
Answer: 15.4 µM

Question: And the GI50 (Ovarian Cancer subpanel; read-out: GI50 MG_MID)?
Answer: 4.67 µM

Question: What about the CC50 (Ovarian Cancer subpanel; read-out: LC50 MG_MID) of the same compound?
Answer: 41.9 µM

Question: What about the GI50 (HCC-2998 (Colon cancer); HCC 2998) of the same compound?
Answer: 10.1 µM

Question: What about the IC (TGI) (HCC-2998 (Colon cancer); HCC 2998, 48 h, read-out: TGI) of the same compound?
Answer: 23 µM

Question: And the CC50 (HCC-2998 (Colon cancer); HCC 2998, read-out: LC50)?
Answer: 52.3 µM

Question: And the GI50 (DU-145 (Prostate cancer); DU-145)?
Answer: 2.25 µM

Question: And the IC (TGI) (DU-145 (Prostate cancer); DU-145, 48 h, read-out: TGI)?
Answer: 5.02 µM

Question: And the CC50 (DU-145 (Prostate cancer); DU-145, read-out: LC50)?
Answer: 13.8 µM
